According to patent US5800838A, “Composition that inhibits or destroys at least one unicellular living organism containing fluorine F- and Lithium li+” (priority 1987, dated 1998):
Converted amounts (≈) assume the structure as drawn. Where two headings read alike, the source gives them in different places.

Assays:
Type in all cases: cell-based
Pseudomonas aeruginosa = assay: MIC of antibiotics by microdilution in liquid medium on plates (Example 18); settings: Pseudomonas aeruginosa, read-out: MIC (average MIC value)
Description: The unicellular living organism chosen for the trials is Pseudomonas aeruginosa (wild-type strain originating from hospital sources).
The same methodology as for Examples 11 and 12 was follows. Bacteriostatic analyses were performed with a number of antibiotics belonging to benzylpenicillins, and aminopenicillins, and first and second generation cephalosporins, namely:
The determination of the MIC was carried out by the microdilution method in liquid medium on plates. Aqueous solutions of each antibiotic are prepared in MUELLER HINION broth, to obtain dilutions in a geometric ratio of 2. The solvent is sterile double-distilled water.
The preparation of the bacterial inoculum is made with a culture of Pseudomonas aeruginosa, with agitation on a water bath at 37° C. for 4 to 6 hours, giving 10^6 bacteria/ml.
Three trials were performed per antibiotic and per bacterial inoculum. The trials were performed first with the antibiotics alone (trials a).sctn., and then with the addition of a dose of 1 mg/l of an aqueous solution of lithium fluoride (trials b).sctn. to the dilution of each one in every cup of every plate.

Klebsiella pneumonia = assay: Phenotype of resistant wild-type hospital strains with activated antibiotics (Example 35); settings: Fli 4 ppm
Description: Strains Gram+ and Gram- (wild-type hospital) having a resistant phenotype vis a vis standard firstly and secondly used antibiotherapy were experimented on activated antibiotics.
250 experiments were conducted on the following strains: Streptococcus group B, C, D, F, G, Staphylococcus aureus, Staphylococcus epidermitis, Klebsiella pneumoniae, Klebsiella spirochete, Klebsiella oxytoca, Proteus mirabilis, Serratia marcescens, Escherichia coli, Citrobacter freundii, Enterobacter cloacae, Enterobacter calcoaceticus, Salmonella spirochete, Salmonella typhimurium, Pseudomonas aeruginosa, Haemophilus influenzae, Haemophilus sphrophilus, Acinetobacter calcoaeticus. […]

Enterobacter = assay: Concentrations of cefotaxime inhibiting 50% of the strains
Description: (§1) The activity of CEFOTAXIME was tested, alone and then in the presence of lithium fluoride, with respect to pathogenic strains other than Pseudomonas aeruginosa.
(§2) The following table expresses the concentrations (mg/l) of cefotaxime inhibiting 50% of the strains.

Escherichia coli = assay: as above
Description: as §1, §2

Klebsiella = assay: as above
Description: as §1, §2

Proteus morganii = assay: as above; settings: Morganella morganii; alone; F20; read-out: 50% inhibitory concentration
Description: as §1, §2

Serratia = assay: as above
Description: as §1, §2

[1] = + LiF 1 mg/l, strain lic R βLac^+ OXA
[2] = + LiF 1 mg/l, strain lic R βLac^+ PSE
[3] = + LiF 1 mg/l, strain lic R βLac^+ TEM
[4] = + LiF 1 mg/l, strain lic R βLac^+ cephalosporinase
[5] = + LiF 1 mg/l, strain lic S βLac^- (first column)
[6] = + LiF 1 mg/l, strain lic S βLac^- (second column)
[7] = alone, strain lic R βLac^+ cephalosporinase
[8] = alone, strain lic S βLac^- (first column)
[9] = alone, strain lic S βLac^- (second column)

`CCN1CCN(C(=O)N[C@@H](C(=O)N[C@@H]2C(=O)N3C(C(=O)O)=C(CSc4nnnn4C)CS[C@H]23)c2ccc(O)cc2)C(=O)C1=O` [CEFOPERAZONE, cefoperazone] showed an MIC (Pseudomonas aeruginosa; [1]) of 64 µg/mL, an MIC (Pseudomonas aeruginosa; [2]) of 32 µg/mL and an MIC (Pseudomonas aeruginosa; [3]) of 32 µg/mL. The MIC (Pseudomonas aeruginosa; [4]) was 64 µg/mL, the MIC (Pseudomonas aeruginosa; [5]) was 4 µg/mL and the MIC (Pseudomonas aeruginosa; [6]) was 16 µg/mL. For the same molecule, the MIC (Pseudomonas aeruginosa; alone, strain lic R βLac^+ OXA) was 64 µg/mL, the MIC (Pseudomonas aeruginosa; alone, strain lic R βLac^+ PSE) was 64 µg/mL and the MIC (Pseudomonas aeruginosa; alone, strain lic R βLac^+ TEM) was 32 µg/mL. The MIC (Pseudomonas aeruginosa; [7]) was 64 µg/mL, the MIC (Pseudomonas aeruginosa; [8]) was 8 µg/mL and the MIC (Pseudomonas aeruginosa; [9]) was 16 µg/mL. For the same molecule, the “phenotype in presence of Fli” value (Klebsiella pneumonia) was “the resistant phenotype was not changed”.

For `CO/N=C(\C(=O)N[C@@H]1C(=O)N2C(C(=O)O)=C(COC(C)=O)CS[C@H]12)c1csc(N)n1` [CEFOTAXIME, cefotaxime], the MIC (Pseudomonas aeruginosa; [1]) was 16 µg/mL, the MIC (Pseudomonas aeruginosa; [2]) was 16 µg/mL and the MIC (Pseudomonas aeruginosa; [3]) was 32 µg/mL. The MIC (Pseudomonas aeruginosa; [4]) was 256 µg/mL, the MIC (Pseudomonas aeruginosa; [5]) was 8 µg/mL and the MIC (Pseudomonas aeruginosa; [6]) was 16 µg/mL. It also gave an MIC (Pseudomonas aeruginosa; alone, strain lic R βLac^+ OXA) of 32 µg/mL, an MIC (Pseudomonas aeruginosa; alone, strain lic R βLac^+ PSE) of 32 µg/mL and an MIC (Pseudomonas aeruginosa; alone, strain lic R βLac^+ TEM) of 32 µg/mL. For the same molecule, the MIC (Pseudomonas aeruginosa; [7]) was 256 µg/mL, the MIC (Pseudomonas aeruginosa; [8]) was 16 µg/mL and the MIC (Pseudomonas aeruginosa; [9]) was 32 µg/mL. It also gave an IC50 (Enterobacter; alone, P49, read-out: 50% inhibitory concentration) of 27.2 µg/mL (≈ 59.7 µM), an IC50 (Enterobacter; alone, T45, read-out: 50% inhibitory concentration) of 0.05 µg/mL (≈ 0.11 µM) and an IC50 (Enterobacter; in the presence of LiF at 1 mg/l, P49, read-out: 50% inhibitory concentration) of 23.2 µg/mL. For the same molecule, the IC50 (Enterobacter; in the presence of LiF at 1 mg/l, T45, read-out: 50% inhibitory concentration) was 0.023 µg/mL, the IC50 (Escherichia coli; alone, K12 J53, read-out: 50% inhibitory concentration) was 0.023 µg/mL (≈ 0.0505 µM) and the IC50 (Escherichia coli; alone, K12 PIP 55, read-out: 50% inhibitory concentration) was 0.023 µg/mL (≈ 0.0505 µM). It also gave an IC50 (Escherichia coli; alone, K12 PIP 111, read-out: 50% inhibitory concentration) of 0.023 µg/mL (≈ 0.0505 µM), an IC50 (Escherichia coli; alone, SOL, read-out: 50% inhibitory concentration) of 0.18 µg/mL (≈ 0.395 µM) and an IC50 (Escherichia coli; in the presence of LiF at 1 mg/l, K12 J53, read-out: 50% inhibitory concentration) of 0.01 µg/mL. The IC50 (Escherichia coli; in the presence of LiF at 1 mg/l, K12 PIP 55, read-out: 50% inhibitory concentration) was 0.023 µg/mL, the IC50 (Escherichia coli; in the presence of LiF at 1 mg/l, K12 PIP 111, read-out: 50% inhibitory concentration) was 0.023 µg/mL and the IC50 (Klebsiella; alone, 1103, read-out: 50% inhibitory concentration) was 0.023 µg/mL (≈ 0.0505 µM). The IC50 (Klebsiella; alone, U28, read-out: 50% inhibitory concentration) was 0.28 µg/mL (≈ 0.615 µM), the IC50 (Klebsiella; in the presence of LiF at 1 mg/l, 1103, read-out: 50% inhibitory concentration) was 0.01 µg/mL and the IC50 (Klebsiella; in the presence of LiF at 1 mg/l, U28, read-out: 50% inhibitory concentration) was 0.16 µg/mL. The IC50 (Proteus morganii) was 0.01 µg/mL (≈ 0.022 µM), the IC50 (Serratia; alone, 1123, read-out: 50% inhibitory concentration) was 0.076 µg/mL (≈ 0.167 µM) and the IC50 (Serratia; alone, MO1117, read-out: 50% inhibitory concentration) was 0.3 µg/mL (≈ 0.659 µM). It also gave an IC50 (Serratia; in the presence of LiF at 1 mg/l, 1123, read-out: 50% inhibitory concentration) of 0.076 µg/mL and an IC50 (Serratia; in the presence of LiF at 1 mg/l, MO1117, read-out: 50% inhibitory concentration) of 0.3 µg/mL.
